# Results published in patent US20240368605A1, “USE OF SPLICE SWITCHING OLIGONUCLEOTIDES FOR EXON SKIPPING-MEDIATED KNOCKDOWN OF PIM2” (INSTITUT NATIONAL DE LA SANTÉ ET DE LA RECHERCHE MÉDICALE, priority 2021, published 2024).
# Key:
# [1] = tested on: PBs; experiment: Mitochondria/Caspase 3-driven apoptosis and viability of PBs; type: cell-based, human
# From the text: Mitochondrial-driven cell death is activated once the mitochondria lose the ability to maintain the inner membrane potential, resulting in the release of proapoptotic proteins into the cytosol. Commitment towards PBs is sustained by an extensive reconfiguration of the epigenetic landscape and of gene expression patterns, both showing that the most prominent function involves cell death and survival (Caron et al., 2015). […] We then investigated the different cell subsets generated through the differentiation model at the protein level for factors involved in apoptosis triggered by mitochondria (data not shown). The PBs compared to all other subsets increased the expression of pBAD and XIAP, both proteins counteract the apoptotic pathway and were described in PIM2-induced survival effect (data not shown) (Fox, 2003; Macdonald et al., 2006; Yan et al., 2003). In accordance with this finding and despite a strong increase in procaspase 3 protein (32 kDa size), PBs decrease the autocatalytic activity of Caspase 3 and therefore the production of p19/p17 apoptosis executors as highlighted by the low levels of cleaved PARP (data not shown) (Ponder and Boise, 2019). […] In addition, we found in P2/CD23+ cells a complete degradation of PARP which illustrate the fact that the apoptosis process is consubstantially associated with the B cell terminal differentiation if cells are not otherwise protected (data not shown).
# We then inhibited PIM2 which led to an intense activation of Caspase 3 and a decrease of viability of PBs. The latter was rescued by the Caspase 3 inhibitor Q-DEVD-OPH (data not shown).
# (§1) The differentiation of immature monocytes is associated with a relocalization of nuclear p21^Cip1/WAF1 to the cytoplasm where the protein participates to apoptosis blockage (Asada, 1999). In addition, Suzuki et al. ascribed the formation of a Procaspase 3/p21^Cip1/WAF1 complex in the context of resistance to Fas-mediated cell death owing to the phosphorylation of p21 by protein kinase A (Suzuki et al., 2000). We wanted therefore to explore whether p21^Cip1/WAF1 may bind Procaspase 3 and developed to this end a FRET approach which detected a signal of energy transfer compatible with such physical interaction. […] We then confirmed the binding between p21^Cip1/WAF1 and Caspase 3 in XG21 cells and in PBs by IP (data not shown). Finally, to confirm the anti-apoptotic role of cytoplasmic p21^Cip1/WAF1 in PBs we inhibited p21^Cip1/WAF1 expression by a siRNA targeting CDKN1A in in vitro D4 B cells (data not shown) and found an activation of the execution of apoptosis characterized by the detection of the p17-fragment cleavage of caspase 3 in parallel to the cleavage of PARP (data not shown) and similar results were found in XG21 cells (data not shown). […] The role of PIM2 is to stabilize p21^Cip1/WAF1 protein in the cytoplasm allowing therefore the formation a multiprotein complex which inhibits Caspase 3 full activation (data not shown).
# [2] = tested on: PBs; experiment: Number of PBs in S-phase of the cell cycle; type: cell-based, human
# From the text: (§2) Since PIM2 acts at multiple cellular levels, we wanted to investigate how this kinase impacts this step of the differentiation. […] To explore this hypothesis, we investigated the G1/S transition of the cell cycle by using the multiple myeloma-derived cell line XG21 which presents an IL-6/STAT3-dependent PIM2 expression and proliferation (data not shown). To this end, we established a double thymidine block to arrest cells in G1-phase, and then released thymidine before subsequent cell cycle analysis. […] In presence of PIM2 blockade regardless of the type of inhibition, cells remained largely arrested in G1 phase until 16 h before starting to die (data not shown). The transition of G1 to S phase of the cell cycle requires the phosphatase CDC25A. We found a significant increase of CDC25A gene expression in PBs compared to CD23+ aBC and chemical inhibition of the phosphatase led to a dramatic decrease of the number of PBs in S phase (data not shown). We then wondered whether PIM2 has an effect on CDC25A as described for PIM1 which increased the catalytic activity after its binding to the phosphatase (Mochizuki et al., 1999). By western blot we detected CDC25A protein in PBs which disappeared in presence of PIMi (data not shown). PIM2 blockade led also to the downregulation of CDC25A and MKI67 gene expression (data not shown).
# [3] = tested on: CDC25A; experiment: CDC25A protein in PBs by western blot; type: cell-based, human
# From the text: as §2
# [4] = tested on: p21^Cip1/WAF1; experiment: CDKN1A gene and p21^Cip1/WAF1 protein expression in PBs; type: cell-based, human; settings: PBs treated conjointly by MG-132 and PIMi
# From the text: (§3) Like p27^Kip1, p21^Cip1/WAF1 is a tight-binding inhibitor of CDKs and inhibits cell cycle entry into S phase (Elledge et al., 1996). Plasmablast commitment leads to a significant increase of the CDKN1A gene, which encodes p21^Cip1/WAF1, and this independently to the expression of TP53 (data not shown). […] We then wondered whether PIM2 could modify p21^Cip1/WAF1 expression. […] To address this scenario, we developed endogenous protein immunoprecipitation (IP) and found in generated PBs and XG21 cell line as well that PIM2, p21^Cip1/WAF1 and HSP90β form a cytoplasmic multiprotein complex (data not shown).
# [5] = tested on: p21^Cip1/WAF1; experiment: p21^Cip1/WAF1 protein expression in XG21 cells; type: cell-based, human; settings: XG21 cells treated conjointly by MG-132 and PIMi
# From the text: as §3
# [6] = tested on: p21^Cip1/WAF1/Procaspase 3 complex; experiment: FRET between p21^Cip1/WAF1 and Procaspase 3; type: cell-based; settings: added to the cell culture
# From the text: as §1
# [7] = tested on: ePCs; experiment: Apoptosis markers in early plasma cells (ePCs) by western blot; type: cell-based, human
# From the text: Plasma cell maturation is a continuum that spans from PBs to fully mature PCs corresponding to long-lived PCs such as those residing in the bone marrow (BM) PC niche where their survival depends on various extrinsic factors. […] We then explored PIM2 expression at the protein level in CD138^+ or BCMA^+ PCs on BM biopsies from patients free from malignant hemopathies obtained from the Pathology department of our institution (F. Llamas-Gutierrez). Single staining was firstly tested by chromogenic immunohistochemistry (CIH) or immunofluorescence (IF) on paraffin-embedded tissue sections followed by multiple staining by IF. Both, CD138 and BCMA staining allowed to identify PCs with, in some areas, high number of positive cells that possibly were close from CD41-positive megakaryocytes and enriched for IL-6 expression (data not shown). In addition, all observed BM PCs expressed PIM2 with a strong intensity (data not shown). To determine the regulation and functional contribution of PIM2 in mature PCs, we produced CD38^hi/CD138^+ PCs by leaving D7 to D10 generated PBs in culture media containing IL-2, IL-10, IL-6 and IFN-alpha (data not shown). Under this condition, the number of CD138^+ cells increased progressively while the number of cells in S-phase of the cell cycle decreased gradually with, respectively, 60.3±8.1% and 3.5±0.3% at D10 (data not shown). In parallel, cells decreased and increased, respectively, the expression of CDC25A and CDKN1B with for the latter, p27^Kip1 protein exclusively detectable in the nucleus at D10 as expected for fully differentiated cells arrested in the cell cycle (data not shown). […] In addition, in these cells, compared to PBs, we observed an increase of PIM2 gene expression as well as its protein level (data not shown).
# We then investigated the other factors described above at the protein levels and detected by western blot in ePCs compared to PBs—and besides p27^Kip1 and PIM2—a significant elevation of Caspase 3 and p21^Cip1/WAF1 protein expression (data not shown).
# [8] = tested on: MM; experiment: Combinations of increasing drug-concentration of PIM inhibitor and MCL1 inhibitor; type: cell-based; settings: increasing concentrations of both drugs
# [9] = tested on: activated B cells diverted from the PB commitment; experiment: Apoptosis of activated B cells diverted from the PB commitment at D6; type: cell-based, human; settings: D6, original in vitro model
# From the text: Mitochondrial-driven cell death is activated once the mitochondria lose the ability to maintain the inner membrane potential, resulting in the release of proapoptotic proteins into the cytosol. Commitment towards PBs is sustained by an extensive reconfiguration of the epigenetic landscape and of gene expression patterns, both showing that the most prominent function involves cell death and survival (Caron et al., 2015). […] We then investigated the different cell subsets generated through the differentiation model at the protein level for factors involved in apoptosis triggered by mitochondria (data not shown). The PBs compared to all other subsets increased the expression of pBAD and XIAP, both proteins counteract the apoptotic pathway and were described in PIM2-induced survival effect (data not shown) (Fox, 2003; Macdonald et al., 2006; Yan et al., 2003). In accordance with this finding and despite a strong increase in procaspase 3 protein (32 kDa size), PBs decrease the autocatalytic activity of Caspase 3 and therefore the production of p19/p17 apoptosis executors as highlighted by the low levels of cleaved PARP (data not shown) (Ponder and Boise, 2019). […]
# [10] = tested on: XG21; experiment: Caspase 3 activation in XG21; type: cell-based, human
# From the text: as §1
# [11] = tested on: MM cell lines; experiment: PIM2 protein expression and drug effects in MM cell lines; type: cell-based, human; settings: western blot, after proteasome inhibition
# From the text: Using data of the Dependency Map (DepMap) portal (https://depmap.org/portal/), we evaluated mRNA expression of PIM2 in silico across >700 different malignant cell lines, including 20 MM cell lines. […] This was specific to PIM2, as PIM1 expression is not overexpress in MM cell lines (data not shown). We confirm the high expression of PIM2 protein in eight MM lines, which correlates well with RNA expression, noting however a large heterogeneity of expression (data not shown) Also, using CRISPR screening of DepMap data, dependency scores of PIM2 underline their specific importance for MM cell survival compared to all cell lines tested, and as compared to PIM1 data not shown). To evaluate potential correlations between PIM2 expression and clinicals outcomes, we analyzed TT2 cohort of the university of Arkansas and within the myeloma patient molecular subgroups. […] Our analysis of the CoMMpass cohort also as PIM2 expression above the cutoff (determined by MaxStat method) in the large dataset correlated with shorter overall survival (P=0.000573) (data not shown). […] These last result fit well with the fact that PIM2 protein expression increase after proteasome inhibition with drug as carfilzomib as show by western blot in MM cell lines (data not shown), leading to an increase of their prosurvival activity as shown described (Adam et al., 2015).
compound,measurement,setting,value
"N[C@@H]1CCCN(c2c(/C=C3\SC(=O)NC3=O)cccc2-c2ccccc2)C1 [PIMi, AZD1208]",cleaved PARP protein,[1]; PBs,production of cleaved PARP protein
same,mitochondrial depolarization,[1]; PBs,strong mitochondrial depolarization
same,pBAD and XIAP protein,[1]; PBs,decrease of pBAD and XIAP
same,number of PBs in S-phase,[2],"decreased drastically, in a dose-dependent manner"
same,CDC25A protein in PBs,[3],disappeared
same,p21^Cip1/WAF1 expression,[4],maintained their p21^Cip1/WAF1 expression but in a poly-ubiquitinylated form
same,p21^Cip1/WAF1 expression,[5],maintained their p21^Cip1/WAF1 expression but in a poly-ubiquitinylated form
same,FRET signal of energy transfer p21^Cip1/WAF1 / Procaspase 3,[6],abolished the signal
same,Caspase 3 activation,[7],activation of Caspase 3 with production of the catalytic active p17 fragment
same,XIAP protein,[7],decrease of XIAP protein
same,cleaved-Caspase 9 fragment,[7],increase of cleaved-Caspase 9 fragment
same,p21^Cip1/WAF1 expression,[7],decrease of p21^Cip1/WAF1 expression
same,synergy of the combination AZD1208 and AZD5991,[8],hard synergy
CC(C)[C@H](NC(=O)c1ccc2ccccc2n1)C(=O)N[C@@H](CC(=O)O)C(=O)COc1c(F)cccc1F [QVD-OPH],rescue from apoptosis,[9],rescued from apoptosis
O=C(Nc1ccc(Cl)c(C(F)(F)F)c1)NC1CCC(Oc2ccc(C(F)(F)F)cn2)CC1 (centres unmarked) [UC2288],Caspase 3 activation,[1]; PBs,dose-dependent increase of Caspase 3 activation
same,apoptosis induction,[1]; by inhibiting p21^Cip1/WAF1 protein expression,induced a Caspase 3-mediated apoptosis
same,Caspase 3 activation,[10],dose-dependent increase of Caspase 3 activation
CC(C)C[C@H](NC(=O)[C@H](CCc1ccccc1)NC(=O)CN1CCOCC1)C(=O)N[C@@H](Cc1ccccc1)C(=O)N[C@@H](CC(C)C)C(=O)[C@@]1(C)CO1 [carfilzomib],PIM2 protein expression,[11],increase
Q-DEVD-OPH,viability of PBs after PIM2 inhibition,[1]; Caspase 3 inhibitor added to PIM2-inhibited PBs,rescued
same,cell viability after UC2288,[1]; Caspase 3 inhibitor added to UC2288-treated cells,restores cell viability
